# Assay results: ChEMBL document CHEMBL4138123, “Design, synthesis and biological evaluation of novel pyrazolochalcones as potential modulators of PI3K/Akt/mTOR pathway and inducers of apoptosis in breast cancer cells” (Eur J Med Chem, 2017)
# How the values were obtained:
# Assay type in all cases: functional
# MDA-MB-231 = assay: Cytotoxicity against human MDA-MB-231 cells assessed as cell growth at 100 uM after 48 hrs by sulforhodamine B assay relative to control; conditions: MDA-MB-231, 48 h, read-out: Activity
# SN12C [1] = assay: Cytotoxicity against human SN12C cells assessed as cell growth at 100 uM after 48 hrs by sulforhodamine B assay relative to control; conditions: read-out: Activity
# A498 = assay: Cytotoxicity against human A498 cells assessed as cell growth at 0.1 uM after 48 hrs by sulforhodamine B assay relative to control; conditions: A498, 48 h, read-out: Activity
# Hs-578T = assay: Cytotoxicity against human Hs 578T cells assessed as cell growth at 10 uM after 48 hrs by sulforhodamine B assay relative to control; conditions: read-out: Activity
# Malme-3M = assay: Cytotoxicity against human MALME-3M cells assessed as cell growth at 0.1 uM after 48 hrs by sulforhodamine B assay relative to control; conditions: read-out: Activity
# SN12C [2] = assay: Cytotoxicity against human SN12C cells assessed as growth inhibition after 48 hrs by sulforhodamine B assay
# OVCAR-3 [3] = assay: Cytotoxicity against human OVCAR3 cells assessed as cell growth at 0.1 uM after 48 hrs by sulforhodamine B assay relative to control; conditions: OVCAR-3, 48 h, read-out: Activity
# NCI-H522 = assay: Cytotoxicity against human NCI-H522 cells assessed as cell growth at 0.01 uM after 48 hrs by sulforhodamine B assay relative to control; conditions: NCI-H522, 48 h, read-out: Activity
# A549 [4] = assay: Cytotoxicity against human A549/ATCC cells assessed as cell growth at 0.01 uM after 48 hrs by sulforhodamine B assay relative to control; conditions: A549, 48 h, read-out: Activity
# UACC-62 = assay: Cytotoxicity against human UACC62 cells assessed as growth inhibition after 48 hrs by sulforhodamine B assay; conditions: UACC-62, 48 h
# HCT-116 = assay: Cytotoxicity against human HCT116 cells assessed as cell growth at 100 uM after 48 hrs by sulforhodamine B assay relative to control; conditions: HCT-116, 48 h, read-out: Activity
# HOP-62 = assay: Cytotoxicity against human HOP62 cells assessed as cell growth at 10 uM after 48 hrs by sulforhodamine B assay relative to control; conditions: HOP-62, 48 h, read-out: Activity
# SNB-19 [5] = assay: Cytotoxicity against human SNB19 cells assessed as cell growth at 0.01 uM after 48 hrs by sulforhodamine B assay relative to control; conditions: SNB-19, 48 h, read-out: Activity
# HCC 2998 = assay: Cytotoxicity against human HCC2998 cells assessed as cell growth at 0.01 uM after 48 hrs by sulforhodamine B assay relative to control; conditions: HCC 2998, 48 h, read-out: Activity
# HCT-15 = assay: Cytotoxicity against human HCT15 cells assessed as cell growth at 0.01 uM after 48 hrs by sulforhodamine B assay relative to control; conditions: HCT-15, 48 h, read-out: Activity
# SK-OV-3 = assay: Cytotoxicity against human SKOV3 cells assessed as cell growth at 10 uM after 48 hrs by sulforhodamine B assay relative to control; conditions: SK-OV-3, 48 h, read-out: Activity
# ACHN = assay: Cytotoxicity against human ACHN cells assessed as cell growth at 1 uM after 48 hrs by sulforhodamine B assay relative to control; conditions: read-out: Activity
# T47D = assay: Cytotoxicity against human T47D cells assessed as cell growth at 1 uM after 48 hrs by sulforhodamine B assay relative to control; conditions: read-out: Activity
# U-251 [6] = assay: Cytotoxicity against human U251 cells assessed as cell growth at 10 uM after 48 hrs by sulforhodamine B assay relative to control; conditions: U-251, 48 h, read-out: Activity
# IGROV-1 = assay: Cytotoxicity against human IGROV1 cells assessed as cell growth at 0.01 uM after 48 hrs by sulforhodamine B assay relative to control; conditions: IGROV-1, 48 h, read-out: Activity
# SW-620 = assay: Cytotoxicity against human SW620 cells assessed as growth inhibition after 48 hrs by sulforhodamine B assay; conditions: SW-620, 48 h
# OVCAR-3 [7] = assay: Cytotoxicity against human OVCAR3 cells assessed as cell growth at 1 uM after 48 hrs by sulforhodamine B assay relative to control; conditions: OVCAR-3, 48 h, read-out: Activity
# SNB-19 [8] = assay: Cytotoxicity against human SNB19 cells assessed as cell growth at 1 uM after 48 hrs by sulforhodamine B assay relative to control; conditions: SNB-19, 48 h, read-out: Activity
# RPMI-8226 = assay: Cytotoxicity against human RPMI8226 cells assessed as growth inhibition after 48 hrs by sulforhodamine B assay; conditions: RPMI-8226, 48 h
# COLO 205 = assay: Cytotoxicity against human COLO205 cells assessed as cell growth at 0.01 uM after 48 hrs by sulforhodamine B assay relative to control; conditions: COLO 205, 48 h, read-out: Activity
# PC-3 = assay: Cytotoxicity against human PC3 cells assessed as growth inhibition after 48 hrs by sulforhodamine B assay; conditions: PC-3, 48 h
# OVCAR-4 = assay: Cytotoxicity against human OVCAR4 cells assessed as cell growth at 10 uM after 48 hrs by sulforhodamine B assay relative to control; conditions: OVCAR-4, 48 h, read-out: Activity
# A549 [9] = assay: Cytotoxicity against human A549/ATCC cells assessed as cell growth at 0.1 uM after 48 hrs by sulforhodamine B assay relative to control; conditions: A549, 48 h, read-out: Activity
# NCI-H23 = assay: Cytotoxicity against human NCI-H23 cells assessed as growth inhibition after 48 hrs by sulforhodamine B assay; conditions: NCI-H23, 48 h; for CC50: read-out: LC50 (the source's name)
# K562 = assay: Cytotoxicity against human K562 cells assessed as cell growth at 0.01 uM after 48 hrs by sulforhodamine B assay relative to control; conditions: K562, 48 h, read-out: Activity
# SR = assay: Cytotoxicity against human SR cells assessed as cell growth at 100 uM after 48 hrs by sulforhodamine B assay relative to control; conditions: read-out: Activity
# U-251 [10] = assay: Cytotoxicity against human U251 cells assessed as cell growth at 1 uM after 48 hrs by sulforhodamine B assay relative to control; conditions: U-251, 48 h, read-out: Activity
# NCI-H322M = assay: Cytotoxicity against human NCI-H322M cells assessed as growth inhibition after 48 hrs by sulforhodamine B assay
# NCI/ADR-RES = assay: Cytotoxicity against human NCI/ADR-RES cells assessed as growth inhibition after 48 hrs by sulforhodamine B assay
# DU-145 = assay: Cytotoxicity against human DU145 cells assessed as cell growth at 0.01 uM after 48 hrs by sulforhodamine B assay relative to control; conditions: DU-145, 48 h, read-out: Activity
# MCF7 = assay: Cytotoxicity against human MCF7 cells assessed as cell growth at 100 uM after 48 hrs by sulforhodamine B assay relative to control; conditions: MCF7, 48 h, read-out: Activity
compound,measurement,setting,value
COc1cc(-c2cc(/C=C/C(=O)c3ccc(Cl)c(Cl)c3)[nH]n2)cc(OC)c1OC,growth at 100 µM,MDA-MB-231,2%
same,growth at 100 µM,SN12C [1],11%
same,growth at 0.1 µM,A498,89%
same,growth at 10 µM,Hs-578T,63%
same,growth at 0.1 µM,Malme-3M,95%
same,LC50,SN12C [2],> 100 µM
same,TGI,SN12C [2],> 100 µM
same,growth at 0.1 µM,OVCAR-3 [3],105%
same,growth at 0.01 µM,NCI-H522,92%
same,growth at 0.01 µM,A549 [4],101%
same,LC50,UACC-62,> 100 µM
same,TGI,UACC-62,> 100 µM
same,growth at 100 µM,HCT-116,-32%
same,growth at 10 µM,HOP-62,-9%
same,growth at 0.01 µM,SNB-19 [5],100%
same,growth at 0.01 µM,HCC 2998,96%
same,growth at 0.01 µM,HCT-15,69%
same,growth at 10 µM,SK-OV-3,26%
same,growth at 1 µM,ACHN,101%
same,growth at 1 µM,T47D,62%
same,growth at 10 µM,U-251 [6],48%
same,growth at 0.01 µM,IGROV-1,97%
same,"LC50 (lethal concentration, 50% net cell kill)",SW-620,> 100 µM
same,TGI,SW-620,79.6 µM
same,growth at 1 µM,OVCAR-3 [7],102%
same,growth at 1 µM,SNB-19 [8],90%
same,LC50,RPMI-8226,> 100 µM
same,TGI,RPMI-8226,6.73 µM
same,growth at 0.01 µM,COLO 205,103%
same,LC50,PC-3,> 100 µM
same,TGI,PC-3,> 100 µM
same,growth at 10 µM,OVCAR-4,52%
same,growth at 0.1 µM,A549 [9],99%
same,TGI,NCI-H23,> 100 µM
same,CC50,NCI-H23,> 100 µM
same,growth at 0.01 µM,K562,99%
same,growth at 100 µM,SR,-51%
same,growth at 1 µM,U-251 [10],87%
same,TGI,NCI-H322M,> 100 µM
same,CC50,NCI-H322M; read-out: LC50 (the source's name),> 100 µM
same,LC50,NCI/ADR-RES,> 100 µM
same,TGI,NCI/ADR-RES,> 100 µM
COc1ccc(-c2cc(/C=C/C(=O)c3ccc4c(c3)OCO4)[nH]n2)cc1OC,GI50,SN12C [2],4.96 µM
same,GI50,UACC-62,1860 nM
same,GI50,SW-620,1500 nM
same,GI50,RPMI-8226,370 nM
same,GI50,PC-3,1980 nM
same,GI50,NCI-H23,2250 nM
same,GI50,NCI-H322M,2670 nM
same,GI50,NCI/ADR-RES,3.43 µM
COc1ccc(C(=O)/C=C/c2cc(-c3cc(OC)c(OC)c(OC)c3)n[nH]2)cc1,growth at 100 µM,MDA-MB-231,19%
same,growth at 100 µM,SN12C [1],7%
same,growth at 0.1 µM,A498,87%
same,growth at 10 µM,Hs-578T,13%
same,growth at 0.1 µM,Malme-3M,91%
same,growth at 0.1 µM,OVCAR-3 [3],101%
same,growth at 0.01 µM,NCI-H522,83%
same,growth at 0.01 µM,A549 [4],98%
same,TGI,UACC-62,3.65 µM
same,growth at 100 µM,HCT-116,-10%
same,growth at 10 µM,HOP-62,-64%
same,growth at 0.01 µM,SNB-19 [5],97%
same,growth at 0.01 µM,HCC 2998,101%
same,growth at 0.01 µM,HCT-15,99%
same,growth at 10 µM,SK-OV-3,18%
same,growth at 1 µM,ACHN,105%
same,growth at 1 µM,T47D,78%
same,growth at 10 µM,U-251 [6],-98%
same,growth at 0.01 µM,IGROV-1,101%
same,TGI,SW-620,3.47 µM
same,growth at 1 µM,OVCAR-3 [7],89%
same,growth at 1 µM,SNB-19 [8],79%
same,LC50,RPMI-8226,> 100 µM
same,TGI,RPMI-8226,2.49 µM
same,growth at 0.01 µM,DU-145,102%
same,growth at 0.01 µM,COLO 205,103%
same,growth at 10 µM,OVCAR-4,-7%
same,growth at 0.1 µM,A549 [9],101%
same,TGI,NCI-H23,12.2 µM
same,CC50,NCI-H23,> 100 µM
same,growth at 0.01 µM,K562,97%
same,growth at 100 µM,SR,-5%
same,growth at 1 µM,U-251 [10],81%
same,TGI,NCI-H322M,4.07 µM
same,growth at 100 µM,MCF7,-69%
same,LC50,NCI/ADR-RES,> 100 µM
same,TGI,NCI/ADR-RES,9.85 µM
